The values below come from patent US20240327364A1, “THERAPEUTIC TARGETING OF GPR68 TO INDUCE FERROPTOSIS” (University Of Maryland, Baltimore, priority 2023, published 2024).

The target of one test is T1, GCGR (Homo sapiens, UniProt P47871).
T1 construct: host or cells: Chem-1 cells expressing Gα15
Description: GPCR Profiler. Format: cell-based.

Another test addresses T2, MET(M1250T) (Homo sapiens, UniProt P08581, M1250T).
T2 construct: purchased DiscoveRx (Fremont, CA)
Kind of test: KinomeScan. The test is classed as binding. The note with it: read-out: % Control.

In a further test the target is T3, PAF (Homo sapiens, UniProt P25105).
T3 construct: host or cells: Chem-1 cells with Gα15
T3 sequence (P25105 whole entry): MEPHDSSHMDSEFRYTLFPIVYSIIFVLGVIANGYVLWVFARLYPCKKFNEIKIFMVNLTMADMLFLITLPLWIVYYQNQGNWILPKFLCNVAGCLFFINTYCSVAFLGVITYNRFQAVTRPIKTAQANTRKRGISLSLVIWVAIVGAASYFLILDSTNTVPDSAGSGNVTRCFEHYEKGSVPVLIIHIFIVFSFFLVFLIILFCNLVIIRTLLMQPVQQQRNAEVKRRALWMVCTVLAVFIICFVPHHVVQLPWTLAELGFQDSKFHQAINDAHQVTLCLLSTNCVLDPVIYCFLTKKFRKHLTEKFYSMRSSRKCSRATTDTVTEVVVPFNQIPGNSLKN
Kind of test: GPCR Profiler. Format: cell-based.

A further test has as its target T4, TRPM6 (Homo sapiens, UniProt Q9BX84).
T4 construct: purchased DiscoveRx (Fremont, CA)
Kind of test: KinomeScan. Format: binding. The note with it: read-out: % Control.

The next test deals with T5, D5 (Homo sapiens, UniProt P21918).
T5 construct: host or cells: Chem-1 cells expressing Gα15
T5 sequence (P21918 whole entry): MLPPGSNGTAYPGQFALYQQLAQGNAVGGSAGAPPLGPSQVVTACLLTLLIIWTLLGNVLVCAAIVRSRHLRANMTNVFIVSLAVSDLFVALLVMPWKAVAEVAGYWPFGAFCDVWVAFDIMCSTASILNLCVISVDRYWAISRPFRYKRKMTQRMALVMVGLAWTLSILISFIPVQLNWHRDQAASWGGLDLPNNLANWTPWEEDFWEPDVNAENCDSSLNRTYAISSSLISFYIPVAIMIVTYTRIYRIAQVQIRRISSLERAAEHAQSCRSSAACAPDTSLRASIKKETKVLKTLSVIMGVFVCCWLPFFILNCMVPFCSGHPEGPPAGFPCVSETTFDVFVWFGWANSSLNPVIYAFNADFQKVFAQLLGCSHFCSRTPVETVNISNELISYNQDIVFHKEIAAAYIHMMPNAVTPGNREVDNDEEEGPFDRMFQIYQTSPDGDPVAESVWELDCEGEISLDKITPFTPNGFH
Description: GPCR Profiler. Format: cell-based.

For a further test, the target named is T6, FLT3 (Homo sapiens, UniProt P36888).
T6 construct: purchased DiscoveRx (Fremont, CA)
T6 sequence (P36888 27-993): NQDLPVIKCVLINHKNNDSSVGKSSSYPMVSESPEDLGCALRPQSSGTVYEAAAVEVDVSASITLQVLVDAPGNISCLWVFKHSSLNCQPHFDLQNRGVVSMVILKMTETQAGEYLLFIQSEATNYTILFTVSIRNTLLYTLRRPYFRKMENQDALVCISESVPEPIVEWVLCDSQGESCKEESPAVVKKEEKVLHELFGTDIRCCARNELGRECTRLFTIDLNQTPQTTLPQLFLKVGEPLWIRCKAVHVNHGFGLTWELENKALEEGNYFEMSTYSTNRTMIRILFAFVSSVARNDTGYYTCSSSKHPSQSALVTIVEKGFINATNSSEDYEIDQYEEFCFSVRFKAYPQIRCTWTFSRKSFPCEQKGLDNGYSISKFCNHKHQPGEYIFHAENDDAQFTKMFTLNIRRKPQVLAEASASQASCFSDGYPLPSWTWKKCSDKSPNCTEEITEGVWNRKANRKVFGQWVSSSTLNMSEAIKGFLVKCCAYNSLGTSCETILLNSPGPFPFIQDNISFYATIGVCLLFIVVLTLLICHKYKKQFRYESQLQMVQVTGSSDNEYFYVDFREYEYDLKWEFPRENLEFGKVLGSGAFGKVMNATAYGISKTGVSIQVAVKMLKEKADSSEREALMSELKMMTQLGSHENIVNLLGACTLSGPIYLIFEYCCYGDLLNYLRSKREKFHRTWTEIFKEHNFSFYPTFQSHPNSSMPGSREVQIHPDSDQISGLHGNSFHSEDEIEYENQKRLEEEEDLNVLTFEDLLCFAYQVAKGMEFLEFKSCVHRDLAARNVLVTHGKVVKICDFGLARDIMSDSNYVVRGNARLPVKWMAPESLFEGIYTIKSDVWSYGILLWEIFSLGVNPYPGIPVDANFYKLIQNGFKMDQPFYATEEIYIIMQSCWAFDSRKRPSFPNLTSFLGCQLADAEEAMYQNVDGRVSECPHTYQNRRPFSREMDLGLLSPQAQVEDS
Kind of test: KinomeScan. Format: binding. As to conditions: read-out: % Control.

A further test concerns the target T7, PIK3CA(Q546K) (Homo sapiens, UniProt P42336, Q546K).
T7 construct: purchased DiscoveRx (Fremont, CA)
Description: KinomeScan. As to conditions: read-out: % Control. The test is classed as binding.

The target of the next test is T8, NIM1 (Homo sapiens, UniProt Q8IY84).
T8 construct: purchased DiscoveRx
Kind of test: KinomeScan. As to conditions: read-out: % Control. The test is classed as binding.

The target of the next test is T9, PIK3CA(I800L) (Homo sapiens, UniProt P42336, I800L).
T9 construct: purchased DiscoveRx (Fremont, CA)
Description: KinomeScan. The test is classed as binding. As to conditions: read-out: % Control.

In the next test the target is T10, P2Y2 (Homo sapiens, UniProt P41231).
T10 construct: host or cells: Chem-1 cells expressing Gα15
T10 sequence (P41231 whole entry, species assumed): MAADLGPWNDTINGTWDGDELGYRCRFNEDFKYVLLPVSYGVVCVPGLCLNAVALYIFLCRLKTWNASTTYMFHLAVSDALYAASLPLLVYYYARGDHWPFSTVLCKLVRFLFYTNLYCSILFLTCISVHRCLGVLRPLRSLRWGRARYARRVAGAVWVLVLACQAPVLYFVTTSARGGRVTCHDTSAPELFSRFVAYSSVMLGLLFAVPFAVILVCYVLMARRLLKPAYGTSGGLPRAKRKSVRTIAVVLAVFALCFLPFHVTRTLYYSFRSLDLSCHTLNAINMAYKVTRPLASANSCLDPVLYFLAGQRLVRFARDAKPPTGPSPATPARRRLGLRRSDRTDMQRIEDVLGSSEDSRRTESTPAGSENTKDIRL
Description: GPCR Profiler. Format: cell-based.

The target in the next test is T11, CCR6 (Homo sapiens, UniProt P51684).
T11 construct: host or cells: Chem-1 cells with Gα15
T11 sequence (P51684 whole entry): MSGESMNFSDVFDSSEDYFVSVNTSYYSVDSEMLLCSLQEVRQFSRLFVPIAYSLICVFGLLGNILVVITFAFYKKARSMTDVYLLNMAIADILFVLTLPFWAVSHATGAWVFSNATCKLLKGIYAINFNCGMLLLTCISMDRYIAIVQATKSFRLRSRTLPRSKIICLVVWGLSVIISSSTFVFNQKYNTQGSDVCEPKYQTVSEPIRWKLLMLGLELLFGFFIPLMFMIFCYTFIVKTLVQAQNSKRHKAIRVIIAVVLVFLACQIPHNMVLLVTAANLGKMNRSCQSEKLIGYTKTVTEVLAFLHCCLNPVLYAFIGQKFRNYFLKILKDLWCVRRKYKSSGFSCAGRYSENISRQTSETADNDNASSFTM
Description: GPCR Profiler. The test is classed as cell-based.

In the next test the target is T12, ETB (Homo sapiens, UniProt P24530).
T12 construct: host or cells: Chem-1 cells expressing Gα15
T12 sequence (P24530 27-442): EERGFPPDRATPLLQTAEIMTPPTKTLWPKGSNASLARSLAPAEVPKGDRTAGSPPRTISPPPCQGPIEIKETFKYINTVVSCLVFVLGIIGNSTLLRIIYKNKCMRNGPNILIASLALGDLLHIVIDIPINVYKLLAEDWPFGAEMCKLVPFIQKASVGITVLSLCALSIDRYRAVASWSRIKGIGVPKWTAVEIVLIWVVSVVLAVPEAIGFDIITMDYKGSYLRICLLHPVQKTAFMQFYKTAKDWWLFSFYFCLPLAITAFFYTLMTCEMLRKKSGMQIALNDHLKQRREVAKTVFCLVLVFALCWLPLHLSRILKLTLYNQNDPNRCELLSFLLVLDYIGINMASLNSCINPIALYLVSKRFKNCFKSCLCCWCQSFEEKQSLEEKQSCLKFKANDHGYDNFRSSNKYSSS
Description: GPCR Profiler. The test is classed as cell-based.

Another test concerns the target T13, MC5 (Homo sapiens, UniProt P33032).
T13 construct: host or cells: Chem-1 cells with promiscuous Gα15
Description: GPCR Profiler. Format: cell-based.

The target in a further test is CLK4 (Homo sapiens, UniProt Q9HAZ1). Description: KinomeScan. The test is classed as binding. As to conditions: read-out: % Control.
Another test addresses T14, ChemR23 (Homo sapiens, UniProt Q99788).
T14 construct: host or cells: Chem-1 cells with Gα15
Kind of test: GPCR Profiler. The test is classed as cell-based.

A further test concerns the target T15, TBK1 (Homo sapiens, UniProt Q9UHD2).
T15 construct: purchased DiscoveRx (Fremont, CA)
Kind of test: KinomeScan. The test is classed as binding. The note with it: read-out: % Control.

Another test addresses T16, OX2 (Homo sapiens, UniProt O43614).
T16 construct: host or cells: Chem-1 cells expressing Gα15
Description: GPCR Profiler. The test is classed as cell-based.

The target in test [1] is T17, ABL1(T315I)-nonphosphorylated (Homo sapiens, UniProt P00519, T315I).
T17 construct: purchased DiscoveRx
Description: KinomeScan. The test is classed as binding. As to conditions: read-out: % Control.

A further test has as its target T18, HIPK1 (Homo sapiens, UniProt Q86Z02).
T18 construct: purchased DiscoveRx (Fremont, CA)
Description: KinomeScan. As to conditions: read-out: % Control. Format: binding.

For a further test, the target named is T19, CDC2L2 (Homo sapiens, UniProt Q9UQ88).
T19 construct: purchased DiscoveRx (KinomeScan service)
Description: KinomeScan. The note with it: read-out: % Control. Format: binding.

A further test has as its target T20, ADCK4 (Homo sapiens, UniProt Q96D53).
T20 construct: purchased DiscoveRx (Fremont, CA)
Description: KinomeScan. Format: binding. As to conditions: read-out: % Control.

A further test relates to U87 glioblastoma cells. Kind of test: Acid-induced calcium flux in U87 cells. Format: cell-based, human. The note with it: medium shifted from pH 7.8 to 6.4. An excerpt: GPR68 is known to signal through Gq which results in a calcium flux out of the Endoplasmic reticulum. U87 glioblastoma cells were stained, using a calcium-sensitive vital dye Fluo-8, and stimulated with acidification of the media to pH6.4. The cells respond to the acidification with a burst of calcium release, this is inhibited by OGM2.
To determine if GBM cells respond to their own acidic extracellular milieu as a form of autocrine signaling, calcium release in response to acidification was measured. GPR68 is known to couple to the Gq subunit, which acts to release calcium from the ER in a PLC dependent pathway. The medium was shifted from pH 7.8 to 6.4, which triggered a rapid and robust calcium flux, as measured by the fluorescence intensity of calcium-sensitive dye Cal520-AM. This calcium flux was blocked by OGM2 and PLC inhibitor U73122. FIG. 50A, FIG. 50B, FIG. 50C and FIG. 50D.
In general terms: Calcium flux is commonly read through the fluorescence of an indicator in the cells.

A further test deals with A549. Kind of test: Clonogenicity (crystal violet). As to conditions: 8 days. The test is classed as cell-based. Here is the method: A549 lung cancer cells were plated at 300 cells per well in a 6-well plate and on the next day were treated with increasing concentrations of OGM2 for 8 days. The plate was fixed with formalin and stained with crystal violet. See FIG. 27B for results at the indicated concentrations.

In the next test the target is T21, GPR4 (Homo sapiens, UniProt P46093).
T21 construct: expressed in transfected cells
T21 sequence (P46093 whole entry): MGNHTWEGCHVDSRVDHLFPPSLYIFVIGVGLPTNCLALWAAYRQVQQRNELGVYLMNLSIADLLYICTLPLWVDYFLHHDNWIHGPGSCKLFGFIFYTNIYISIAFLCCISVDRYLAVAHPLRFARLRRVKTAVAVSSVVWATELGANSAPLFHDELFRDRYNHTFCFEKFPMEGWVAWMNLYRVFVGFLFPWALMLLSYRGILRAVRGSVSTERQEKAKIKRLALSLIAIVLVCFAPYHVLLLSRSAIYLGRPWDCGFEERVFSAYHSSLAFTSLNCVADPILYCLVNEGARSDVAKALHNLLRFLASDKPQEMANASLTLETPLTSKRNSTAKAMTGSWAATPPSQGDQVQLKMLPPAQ
Description: SRE-luciferase assay, GPR4-transfected HEK293 cells. The test is classed as cell-based. As to conditions: OGM2 at 1, 10, or 100 μM. As for the experimental part:
12-well plates of cells were transfected with 1 μg DNA using Lipofectamine 3000 with sre:luciferase and either the vector backbone, GFP, GPR68, GPR68-GFP, GPR4, or 336X-GFP. After 3 days, these cells were then lysed, and cell extracts were subjected to Steady-Glo luciferase assay (Promega™) according to the manufacturer's instructions. The results were normalized to cell titer, as determined using Cell Titer-Glo luminescence assay (Promega™). For some procedure, the cells were treated in serum-free medium, and were lysed on the third day.
Because GPR4, the paralog with highest homology with GPR68, was not covered in the initial GPCR profiling, whether OGM2 could inhibit GPR4 was tested by examining the effects of OGM2 on acid-induced serum responsive element (SRE) luciferase activity in HEK293 cells transfected with either GPR4 or GPR68. Mild acidification increased luciferase activity in GPR4 and GPR68 transfected cells above that of vector control.
Cas9^GPR68=GPR68 targeted sgRNA and Cas9; CTL=control; MoGPR68=GPR68 morpholino treatment. […] These cells were exposed to acidic media and assayed for luciferase activity as a readout of the receptor activity.

Each structure is given as a SMILES string.

T13 sequence (P33032 whole entry): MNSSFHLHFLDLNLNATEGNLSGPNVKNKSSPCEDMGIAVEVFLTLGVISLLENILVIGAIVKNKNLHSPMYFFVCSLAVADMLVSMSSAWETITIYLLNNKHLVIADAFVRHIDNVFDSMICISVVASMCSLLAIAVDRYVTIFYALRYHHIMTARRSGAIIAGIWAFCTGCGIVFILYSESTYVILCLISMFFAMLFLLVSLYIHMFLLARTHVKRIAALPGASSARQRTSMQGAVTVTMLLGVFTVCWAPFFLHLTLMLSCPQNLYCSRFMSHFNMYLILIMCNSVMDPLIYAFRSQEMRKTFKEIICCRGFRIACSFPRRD
T1 sequence (P47871 26-477): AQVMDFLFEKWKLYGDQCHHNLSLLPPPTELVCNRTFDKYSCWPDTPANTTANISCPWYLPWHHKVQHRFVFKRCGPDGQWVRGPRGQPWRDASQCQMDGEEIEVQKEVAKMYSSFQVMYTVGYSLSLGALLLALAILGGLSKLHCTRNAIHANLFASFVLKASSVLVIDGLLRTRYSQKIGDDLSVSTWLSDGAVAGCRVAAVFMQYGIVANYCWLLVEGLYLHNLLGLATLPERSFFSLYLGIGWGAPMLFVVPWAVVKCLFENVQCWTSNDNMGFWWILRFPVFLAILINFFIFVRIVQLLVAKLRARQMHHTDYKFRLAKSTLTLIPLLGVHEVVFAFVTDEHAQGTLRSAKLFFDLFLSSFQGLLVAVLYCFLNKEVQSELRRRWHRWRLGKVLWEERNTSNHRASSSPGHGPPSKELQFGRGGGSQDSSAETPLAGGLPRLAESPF
T16 sequence (O43614 whole entry): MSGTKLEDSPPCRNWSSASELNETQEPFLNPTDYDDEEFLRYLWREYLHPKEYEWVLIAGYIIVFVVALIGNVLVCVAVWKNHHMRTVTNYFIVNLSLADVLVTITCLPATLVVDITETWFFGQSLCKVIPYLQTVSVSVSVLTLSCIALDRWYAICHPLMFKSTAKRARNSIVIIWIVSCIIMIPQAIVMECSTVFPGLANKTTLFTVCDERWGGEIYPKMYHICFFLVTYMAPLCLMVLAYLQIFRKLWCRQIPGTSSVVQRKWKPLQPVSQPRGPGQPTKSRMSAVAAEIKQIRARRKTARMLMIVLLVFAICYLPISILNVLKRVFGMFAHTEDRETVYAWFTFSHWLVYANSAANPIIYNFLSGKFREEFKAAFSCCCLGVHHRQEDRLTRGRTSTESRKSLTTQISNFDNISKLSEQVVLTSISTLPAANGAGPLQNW
T14 sequence (Q99788 whole entry, species assumed): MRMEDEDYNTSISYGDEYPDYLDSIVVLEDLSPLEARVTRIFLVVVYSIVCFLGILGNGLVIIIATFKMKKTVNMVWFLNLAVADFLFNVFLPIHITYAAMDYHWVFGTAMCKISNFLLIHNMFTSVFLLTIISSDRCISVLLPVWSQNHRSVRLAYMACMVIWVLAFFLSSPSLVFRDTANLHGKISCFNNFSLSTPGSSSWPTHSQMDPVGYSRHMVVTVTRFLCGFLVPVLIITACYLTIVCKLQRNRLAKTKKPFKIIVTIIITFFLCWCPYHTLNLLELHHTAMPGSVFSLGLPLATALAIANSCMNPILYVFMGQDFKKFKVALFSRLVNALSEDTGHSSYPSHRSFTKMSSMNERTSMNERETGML

Regarding `CCc1ccc2c(c1)C1(NN=C(c3cccc4ccccc34)S1)C(=O)N2` (stereo not drawn) [OGM1, 5-ethyl-5′-naphthalen-1-ylspiro[1H-indole-3,2′-3H-1,3,4-thiadiazole]-2-one], the Antagonism on GCGR (10 uM) is 6.1; at PAF (10 uM) it was 6.6; on D5 (10 uM) it was −17.8; on P2Y2 (10 uM), −9; at CCR6 (10 uM), 5.1; at ETB (10 uM), −1.6. Also, the Antagonism was 13.9 on MC5 (10 uM), 0.1 on ChemR23 (10 uM) and −3.4 at OX2 (10 uM). Besides, the Agonism is −0.1 at GCGR (12.5 uM); 0.4 at PAF (12.5 uM); −1.8 on D5 (12.5 uM); 0.1 at P2Y2 (12.5 uM); 1.5 at CCR6 (12.5 uM); 9.1 on ETB (12.5 uM). The results for the Agonism on MC5 (12.5 uM), on ChemR23 (12.5 uM) and on OX2 (12.5 uM) were 0.9, 0 and 0.2, respectively. The remaining binding at 10 µM on MET(M1250T) is 68%; at TRPM6 it was 80%; on FLT3, 79%; at PIK3CA(Q546K) it was 95%; at NIM1, 96%; at PIK3CA(I800L), 100%. Moreover, the remaining binding at 10 µM at CLK4 is 88%; at TBK1, 90%; in test [1], 73%; at HIPK1, 99%; on CDC2L2, 93%; on ADCK4 it was 70%.

Turning to `CCc1ccc2c(c1)C1(NN=C(c3ccccc3)S1)C(=O)N2` (stereo not drawn) [OGM2], in the test with U87 glioblastoma cells, the acid-induced calcium flux entry is given as “blocked”. Also, in the test with A549, the clonogenicity entry is “reduced the clonogenicity of lung cancer cells”. Further, at GPR4, the “acid-induced SRE-luciferase activity” value is listed as “not inhibited”.
